26 molecules from patent US8309584B2, “Sulfur containing pyrazole-heterocycle derivatives as cannabinoid CB1 receptor antagonists” (Green Cross Corporation, priority 2008, dated 2012) can be followed below.

The assay addresses T1, rat CB-1 receptor (Rattus norvegicus, UniProt P20272).
T1 construct: The tissue obtained from the brain of SD rats was homogenized; from tissue; host or cells: SD rat brain membrane homogenate
The assay is described as follows: rat cannabinoid-1 receptor (CB1R) binding affinity assay. Here is the method: The tissue obtained from the brain of SD rats was homogenized with a Dounce homogenate system in TME(50 mM Tris, 3 mM MgCl2 and 1 mM EDTA, pH 7.4) at 4° C., and the homogenate was centrifuged at 48,000 g for 30 min. at 4° C. The pellet was resuspended in 5 ml of TME and the suspension was divided into aliquots and stored at −70° C. until its use in the following assay.
The tissue concentrations were determined by Bradford protein analysis, and 148 μl of brain tissue of the required concentration was added to the plate. The plate was covered and placed in a 30° C. incubator for 60 min, and then transformed on GF/B filtermat pretreated in polyethylenimine (PEI) using a cell harvester. Each filter was washed five times and dried at 60° C. for 1 hr. Then, the degree of radioactivity retained by the filter was measured using Wallac Microbeta™ (PerkinElmer Life Sciences, Inc., Massachusetts, U.S.A.) and the activity of the compound for inhibiting CB1 receptor was determined therefrom.

Setting [1] is: [3H]CP-55940 radioligand, SD rat brain tissue homogenate, 30° C., 60 min, read-out: IC50.

Where two headings read alike, the source gives them in different places.

T1 sequence (P20272 whole entry): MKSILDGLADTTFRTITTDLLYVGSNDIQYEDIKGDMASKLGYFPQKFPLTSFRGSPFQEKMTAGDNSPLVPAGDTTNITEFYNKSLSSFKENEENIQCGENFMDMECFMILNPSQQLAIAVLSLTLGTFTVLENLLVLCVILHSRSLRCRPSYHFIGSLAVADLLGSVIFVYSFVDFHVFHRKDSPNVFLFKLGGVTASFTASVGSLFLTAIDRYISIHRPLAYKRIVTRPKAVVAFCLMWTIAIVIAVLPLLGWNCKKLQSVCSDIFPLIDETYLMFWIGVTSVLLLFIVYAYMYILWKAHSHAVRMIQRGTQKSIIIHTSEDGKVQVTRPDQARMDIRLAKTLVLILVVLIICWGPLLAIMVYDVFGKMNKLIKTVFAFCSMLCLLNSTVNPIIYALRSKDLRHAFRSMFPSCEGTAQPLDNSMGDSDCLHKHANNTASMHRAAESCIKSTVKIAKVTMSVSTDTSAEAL

For `C[S+]([O-])c1c(-c2nnc(C3(C(F)(F)F)CCC3)s2)nn(-c2ccc(Cl)cc2Cl)c1-c1ccc(Cl)cc1` (centres unmarked) [Example 62, 2-(5-(4-chlorophenyl)-1-(2,4-dichlorophenyl)-4-(methylsulfinyl)-1H-pyrazol-3-yl)-5-(1-(trifluoromethyl)cyclobutyl)-1,3,4-thiadiazole], the IC50 under setting [1] is 4.12 nM.
On the same count and under the same terms, under `C[S+]([O-])c1c(-c2nnc(C3(c4ccc(Cl)cc4)CC3)s2)nn(-c2ccc(Cl)cc2Cl)c1-c1ccc(Cl)cc1` (centres unmarked) [Example 63, 2-(5-(4-chlorophenyl)-1-(2,4-dichlorophenyl)-4-(methylsulfinyl)-1H-pyrazol-3-yl)-5-(1-(4-chlorophenyl)cyclopropyl)-1,3,4-thiadiazole] stands 11.8 nM; under `C[S+]([O-])c1c(-c2nnc(C3(C(F)(F)F)CCC3)s2)nn(-c2ccccc2Cl)c1-c1ccc(Cl)cc1` (centres unmarked) [Example 66, 2-(1-(2-chlorophenyl)-5-(4-chlorophenyl)-4-(methylsulfinyl)-1H-pyrazol-3-yl)-5-(1-(trifluoromethyl)cyclobutyl)-1,3,4-thiadiazole], 3.4 nM.
With `C[S+]([O-])c1c(-c2nnc(C(C)(C)C)s2)nn(-c2ccccc2Cl)c1-c1ccc(Br)cc1` (centres unmarked) [Example 72, 2-(5-(4-bromophenyl)-1-(2-chlorophenyl)-4-(methylsulfinyl)-1H-pyrazol-3-yl)-5-tert-butyl-1,3,4-thiadiazole], under setting [1], the IC50 was 7.97 nM.
Still for that read-out and setting: to `C[S+]([O-])c1c(-c2nnc(C3(C(F)(F)F)CC3)s2)nn(-c2ccccc2Cl)c1-c1ccc(Br)cc1` (centres unmarked) [Example 73, 2-(5-(4-bromophenyl)-1-(2-chlorophenyl)-4-(methylsulfinyl)-1H-pyrazol-3-yl)-5-(1-(trifluoromethyl)cyclopropyl)-1,3,4-thiadiazole] belongs 6.08 nM; to `C[S+]([O-])c1c(-c2nnc(C3(C(F)(F)F)CCC3)s2)nn(-c2ccccc2Cl)c1-c1ccc(Br)cc1` (centres unmarked) [Example 74, 2-(5-(4-bromophenyl)-1-(2-chlorophenyl)-4-(methylsulfinyl)-1H-pyrazol-3-yl)-5-(1-(trifluoromethyl)cyclobutyl)-1,3,4-thiadiazole], 2.32 nM.
Regarding `CC(C)(C)c1nnc(-c2nn(-c3ccc(Cl)cc3Cl)c(-c3ccc(Cl)cc3)c2S(C)(=O)=O)o1` [Example 80, 2-tert-butyl-5-(5-(4-chlorophenyl)-1-(2,4-dichlorophenyl)-4-(methylsulfonyl)-1H-pyrazol-3-yl)-1,3,4-oxadiazole], the IC50 under setting [1] turned out to be 15.2 nM.
Take `CS(=O)(=O)c1c(-c2nnc(C3(C(F)(F)F)CC3)o2)nn(-c2ccc(Cl)cc2Cl)c1-c1ccc(Cl)cc1` [Example 81, 2-(5-(4-chlorophenyl)-1-(2,4-dichlorophenyl)-4-(methylsulfonyl)-1H-pyrazol-3-yl)-5-(1-(trifluoromethyl)cyclopropyl)-1,3,4-oxadiazole]: the IC50 under setting [1] amounted to 6.31 nM.
For the molecule `CS(=O)(=O)c1c(-c2nnc(C3(C(F)(F)F)CCC3)o2)nn(-c2ccc(Cl)cc2Cl)c1-c1ccc(Cl)cc1` [Example 82, 2-(5-(4-chlorophenyl)-1-(2,4-dichlorophenyl)-4-(methylsulfonyl)-1H-pyrazol-3-yl)-5-(1-(trifluoromethyl)cyclobutyl)-1,3,4-oxadiazole], the IC50 was found to be 6.79 nM.
Consider `CS(=O)(=O)c1c(-c2nnc(C3(c4ccc(Cl)cc4)CC3)o2)nn(-c2ccc(Cl)cc2Cl)c1-c1ccc(Cl)cc1` [Example 83, 2-(5-(4-chlorophenyl)-1-(2,4-dichlorophenyl)-4-(methylsulfonyl)-1H-pyrazol-3-yl)-5-(1-(4-chlorophenyl)cyclopropyl)-1,3,4-oxadiazole], for which the IC50 under setting [1] amounted to 22 nM.
On the same count and under the same terms, under `CC(C)(C)c1nnc(-c2nn(-c3ccc(Cl)cc3Cl)c(-c3ccc(Br)cc3)c2S(C)(=O)=O)o1` [Example 88, 2-(5-(4-bromophenyl)-1-(2,4-dichlorophenyl)-4-(methylsulfonyl)-1H-pyrazol-3-yl)-5-tert-butyl-1,3,4-oxadiazole] stands 14.2 nM; under `CS(=O)(=O)c1c(-c2nnc(C3(C(F)(F)F)CCC3)o2)nn(-c2ccc(Cl)cc2Cl)c1-c1ccc(Br)cc1` [Example 90, 2-(5-(4-bromophenyl)-1-(2,4-dichlorophenyl)-4-(methylsulfonyl)-1H-pyrazol-3-yl)-5-(1-(trifluoromethyl)cyclobutyl)-1,3,4-oxadiazole], 7.34 nM; under `CC(C)(C)c1nnc(-c2nn(-c3ccccc3Cl)c(-c3ccc(Br)cc3)c2S(C)(=O)=O)o1` [Example 92, 2-(5-(4-bromophenyl)-1-(2-chlorophenyl)-4-(methylsulfonyl)-1H-pyrazol-3-yl)-5-tert-butyl-1,3,4-oxadiazole], 8.15 nM.
Still for that read-out and setting: under `CS(=O)(=O)c1c(-c2nnc(C3(C(F)(F)F)CCC3)o2)nn(-c2ccccc2Cl)c1-c1ccc(Br)cc1` [Example 94, 2-(5-(4-bromophenyl)-1-(2-chlorophenyl)-4-(methylsulfonyl)-1H-pyrazol-3-yl)-5-(1-(trifluoromethyl)cyclobutyl)-1,3,4-oxadiazole] stands 5.21 nM; under `CC(C)(C)c1nnc(-c2nn(-c3ccc(Cl)cc3Cl)c(-c3ccc(Cl)cc3)c2S(C)(=O)=O)s1` [Example 100, 2-tert-butyl-5-(5-(4-chlorophenyl)-1-(2,4-dichlorophenyl)-4-(methylsulfonyl)-1H-pyrazol-3-yl)-1,3,4-thiadiazole], 5.84 nM.
In the case of `CS(=O)(=O)c1c(-c2nnc(C3(C(F)(F)F)CC3)s2)nn(-c2ccc(Cl)cc2Cl)c1-c1ccc(Cl)cc1` [Example 101, 2-(5-(4-chlorophenyl)-1-(2,4-dichlorophenyl)-4-(methylsulfonyl)-1H-pyrazol-3-yl)-5-(1-(trifluoromethyl)cyclopropyl)-1,3,4-thiadiazole], the IC50 under setting [1] turned out to be 22 nM.
In the case of `CS(=O)(=O)c1c(-c2nnc(C3(C(F)(F)F)CCC3)s2)nn(-c2ccc(Cl)cc2Cl)c1-c1ccc(Cl)cc1` [Example 102, 2-(5-(4-chlorophenyl)-1-(2,4-dichlorophenyl)-4-(methylsulfonyl)-1H-pyrazol-3-yl)-5-(1-(trifluoromethyl)cyclobutyl)-1,3,4-thiadiazole], the IC50 under setting [1] is 3.74 nM.
As to `CS(=O)(=O)c1c(-c2nnc(C3(c4ccc(Cl)cc4)CC3)s2)nn(-c2ccc(Cl)cc2Cl)c1-c1ccc(Cl)cc1` [Example 103, 2-(5-(4-chlorophenyl)-1-(2,4-dichlorophenyl)-4-(methylsulfonyl)-1H-pyrazol-3-yl)-5-(1-(4-chlorophenyl)cyclopropyl)-1,3,4-thiadiazole], under setting [1], the IC50 came out at 4.34 nM.
For `CC(C)(C)c1nnc(-c2nn(-c3ccccc3Cl)c(-c3ccc(Cl)cc3)c2S(C)(=O)=O)s1` [Example 104, 2-tert-butyl-5-(1-(2-chlorophenyl)-5-(4-chlorophenyl)-4-(methylsulfonyl)-1H-pyrazol-3-yl)-1,3,4-thiadiazole], under setting [1], the IC50 worked out at 7.18 nM.
On the same count and under the same terms, under `CS(=O)(=O)c1c(-c2nnc(C3(C(F)(F)F)CCC3)s2)nn(-c2ccccc2Cl)c1-c1ccc(Cl)cc1` [Example 106, 2-(1-(2-chlorophenyl)-5-(4-chlorophenyl)-4-(methylsulfonyl)-1H-pyrazol-3-yl)-5-(1-(trifluoromethyl)cyclobutyl)-1,3,4-thiadiazole] stands 0.87 nM.
Regarding `CS(=O)(=O)c1c(-c2nnc(C3(C(F)(F)F)CCC3)s2)nn(-c2ccc(Cl)cc2Cl)c1-c1ccc(Br)cc1` [Example 110, 2-(5-(4-bromophenyl)-1-(2,4-dichlorophenyl)-4-(methylsulfonyl)-1H-pyrazol-3-yl)-5-(1-(trifluoromethyl)cyclobutyl)-1,3,4-thiadiazole], the IC50 under setting [1] came out at 3.64 nM.
On the same count and under the same terms, to `CC(C)(C)c1nnc(-c2nn(-c3ccccc3Cl)c(-c3ccc(Br)cc3)c2S(C)(=O)=O)s1` [Example 112, 2-(5-(4-bromophenyl)-1-(2-chlorophenyl)-4-(methylsulfonyl)-1H-pyrazol-3-yl)-5-tert-butyl-1,3,4-thiadiazole] belongs 3.01 nM; to `CS(=O)(=O)c1c(-c2nnc(C3(C(F)(F)F)CC3)s2)nn(-c2ccccc2Cl)c1-c1ccc(Br)cc1` [Example 113, 2-(5-(4-bromophenyl)-1-(2-chlorophenyl)-4-(methylsulfonyl)-1H-pyrazol-3-yl)-5-(1-(trifluoromethyl)cyclopropyl)-1,3,4-thiadiazole], 2.51 nM.
Still for that read-out and setting: to `CS(=O)(=O)c1c(-c2nnc(C3(C(F)(F)F)CCC3)s2)nn(-c2ccccc2Cl)c1-c1ccc(Br)cc1` [Example 114, 2-(5-(4-bromophenyl)-1-(2-chlorophenyl)-4-(methylsulfonyl)-1H-pyrazol-3-yl)-5-(1-(trifluoromethyl)cyclobutyl)-1,3,4-thiadiazole] belongs 1.08 nM.
Still for that read-out and setting: to `CS(=O)(=O)c1c(-c2nnc(C3(c4ccc(Cl)cc4)CC3)s2)nn(-c2ccccc2Cl)c1-c1ccc(Br)cc1` [Example 115, 2-(5-(4-bromophenyl)-1-(2-chlorophenyl)-4-(methylsulfonyl)-1H-pyrazol-3-yl)-5-(1-(4-chlorophenyl)cyclopropyl)-1,3,4-thiadiazole] belongs 1.4 nM; to `CCS(=O)(=O)c1c(-c2nnc(C3(c4ccc(Cl)cc4)CC3)s2)nn(-c2ccc(Cl)cc2Cl)c1-c1ccc(Cl)cc1` [Example 119, 2-(5-(4-chlorophenyl)-1-(2,4-dichlorophenyl)-4-(ethylsulfonyl)-1H-pyrazol-3-yl)-5-(1-(4-chlorophenyl)cyclopropyl)-1,3,4-thiadiazole], 2.06 nM.
